Laboratory results as given in ChEMBL document CHEMBL6078616, “Seven-membered N-heterocycles as approved drugs and promising leads in medicinal chemistry as well as the metal-free domino access to their scaffolds” (Eur J Med Chem, 2024).

Legend:
[1] = target: T1, Polyamine deacetylase HDAC10 (Homo sapiens, UniProt Q969S8); assay: Inhibition of HDAC10 (unknown origin)
T1 sequence (Q969S8 whole entry): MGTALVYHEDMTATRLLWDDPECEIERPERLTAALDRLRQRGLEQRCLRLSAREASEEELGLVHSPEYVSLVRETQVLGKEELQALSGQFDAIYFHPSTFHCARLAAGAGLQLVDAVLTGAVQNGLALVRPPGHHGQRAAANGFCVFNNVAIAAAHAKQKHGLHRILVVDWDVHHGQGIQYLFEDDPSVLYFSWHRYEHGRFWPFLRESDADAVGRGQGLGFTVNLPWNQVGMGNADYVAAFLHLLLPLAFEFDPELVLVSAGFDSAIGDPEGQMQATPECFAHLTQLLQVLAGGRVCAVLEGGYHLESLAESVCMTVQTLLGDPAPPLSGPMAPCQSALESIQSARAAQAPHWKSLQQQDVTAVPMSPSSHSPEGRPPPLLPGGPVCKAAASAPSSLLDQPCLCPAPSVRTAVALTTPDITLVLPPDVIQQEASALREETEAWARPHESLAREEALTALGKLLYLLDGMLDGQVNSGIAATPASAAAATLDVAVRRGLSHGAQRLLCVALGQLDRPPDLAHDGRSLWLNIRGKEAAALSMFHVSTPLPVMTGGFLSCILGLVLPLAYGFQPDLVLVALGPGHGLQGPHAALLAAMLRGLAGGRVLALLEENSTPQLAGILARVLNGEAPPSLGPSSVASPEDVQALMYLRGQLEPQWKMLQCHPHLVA

Histone deacetylase 5 = Histone deacetylase 5 (Homo sapiens, UniProt Q9UQL6); assay: Inhibition of HDAC5 (unknown origin)
Chain of Histone deacetylase 5 (Q9UQL6 whole entry): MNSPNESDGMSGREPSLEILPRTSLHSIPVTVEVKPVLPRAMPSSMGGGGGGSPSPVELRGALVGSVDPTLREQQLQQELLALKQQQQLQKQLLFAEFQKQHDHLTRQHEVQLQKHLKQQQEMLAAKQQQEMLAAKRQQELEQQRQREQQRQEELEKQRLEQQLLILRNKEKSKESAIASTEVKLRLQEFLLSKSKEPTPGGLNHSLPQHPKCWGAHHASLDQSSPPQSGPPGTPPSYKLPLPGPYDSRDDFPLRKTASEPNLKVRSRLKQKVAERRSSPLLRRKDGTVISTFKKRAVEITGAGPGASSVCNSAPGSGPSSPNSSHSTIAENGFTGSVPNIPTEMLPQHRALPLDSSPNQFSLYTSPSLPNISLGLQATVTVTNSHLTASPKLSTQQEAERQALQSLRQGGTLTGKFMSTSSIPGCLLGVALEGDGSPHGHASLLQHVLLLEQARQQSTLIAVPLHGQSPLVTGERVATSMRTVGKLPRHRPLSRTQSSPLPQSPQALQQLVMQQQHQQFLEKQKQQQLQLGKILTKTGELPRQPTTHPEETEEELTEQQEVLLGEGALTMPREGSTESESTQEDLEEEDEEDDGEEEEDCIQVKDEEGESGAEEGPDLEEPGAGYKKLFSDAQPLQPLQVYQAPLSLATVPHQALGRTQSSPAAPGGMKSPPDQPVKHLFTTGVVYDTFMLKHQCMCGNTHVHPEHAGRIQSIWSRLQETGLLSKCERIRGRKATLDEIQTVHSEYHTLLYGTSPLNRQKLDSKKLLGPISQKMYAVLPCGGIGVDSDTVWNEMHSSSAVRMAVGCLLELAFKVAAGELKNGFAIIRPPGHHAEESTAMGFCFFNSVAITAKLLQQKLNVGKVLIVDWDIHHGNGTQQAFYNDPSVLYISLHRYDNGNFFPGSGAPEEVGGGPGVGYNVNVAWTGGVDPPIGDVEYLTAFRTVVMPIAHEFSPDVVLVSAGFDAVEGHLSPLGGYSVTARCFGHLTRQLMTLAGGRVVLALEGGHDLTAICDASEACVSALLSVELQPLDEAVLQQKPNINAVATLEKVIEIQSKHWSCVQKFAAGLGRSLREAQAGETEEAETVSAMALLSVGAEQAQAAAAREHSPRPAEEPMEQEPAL

Histone deacetylase 1 = Histone deacetylase 1 (Homo sapiens, UniProt Q13547); assay: Inhibition of HDAC1 (unknown origin)
Chain of Histone deacetylase 1 (Q13547 whole entry): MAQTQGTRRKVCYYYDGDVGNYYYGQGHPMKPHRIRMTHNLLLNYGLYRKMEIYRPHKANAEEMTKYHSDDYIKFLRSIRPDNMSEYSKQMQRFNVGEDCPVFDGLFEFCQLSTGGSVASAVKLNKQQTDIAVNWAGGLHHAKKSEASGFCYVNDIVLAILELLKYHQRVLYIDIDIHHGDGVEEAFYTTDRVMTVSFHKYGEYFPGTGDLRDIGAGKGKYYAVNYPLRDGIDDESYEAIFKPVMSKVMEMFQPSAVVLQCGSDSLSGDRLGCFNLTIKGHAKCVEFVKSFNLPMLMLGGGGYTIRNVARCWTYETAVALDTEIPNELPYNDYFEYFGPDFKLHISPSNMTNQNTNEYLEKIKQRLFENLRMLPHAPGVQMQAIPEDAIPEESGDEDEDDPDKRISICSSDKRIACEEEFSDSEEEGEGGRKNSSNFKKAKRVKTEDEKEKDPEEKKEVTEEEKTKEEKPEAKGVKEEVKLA

Histone deacetylase 4 = Histone deacetylase 4 (Homo sapiens, UniProt P56524); assay: Inhibition of HDAC4 (unknown origin)
Chain of Histone deacetylase 4 (P56524 whole entry): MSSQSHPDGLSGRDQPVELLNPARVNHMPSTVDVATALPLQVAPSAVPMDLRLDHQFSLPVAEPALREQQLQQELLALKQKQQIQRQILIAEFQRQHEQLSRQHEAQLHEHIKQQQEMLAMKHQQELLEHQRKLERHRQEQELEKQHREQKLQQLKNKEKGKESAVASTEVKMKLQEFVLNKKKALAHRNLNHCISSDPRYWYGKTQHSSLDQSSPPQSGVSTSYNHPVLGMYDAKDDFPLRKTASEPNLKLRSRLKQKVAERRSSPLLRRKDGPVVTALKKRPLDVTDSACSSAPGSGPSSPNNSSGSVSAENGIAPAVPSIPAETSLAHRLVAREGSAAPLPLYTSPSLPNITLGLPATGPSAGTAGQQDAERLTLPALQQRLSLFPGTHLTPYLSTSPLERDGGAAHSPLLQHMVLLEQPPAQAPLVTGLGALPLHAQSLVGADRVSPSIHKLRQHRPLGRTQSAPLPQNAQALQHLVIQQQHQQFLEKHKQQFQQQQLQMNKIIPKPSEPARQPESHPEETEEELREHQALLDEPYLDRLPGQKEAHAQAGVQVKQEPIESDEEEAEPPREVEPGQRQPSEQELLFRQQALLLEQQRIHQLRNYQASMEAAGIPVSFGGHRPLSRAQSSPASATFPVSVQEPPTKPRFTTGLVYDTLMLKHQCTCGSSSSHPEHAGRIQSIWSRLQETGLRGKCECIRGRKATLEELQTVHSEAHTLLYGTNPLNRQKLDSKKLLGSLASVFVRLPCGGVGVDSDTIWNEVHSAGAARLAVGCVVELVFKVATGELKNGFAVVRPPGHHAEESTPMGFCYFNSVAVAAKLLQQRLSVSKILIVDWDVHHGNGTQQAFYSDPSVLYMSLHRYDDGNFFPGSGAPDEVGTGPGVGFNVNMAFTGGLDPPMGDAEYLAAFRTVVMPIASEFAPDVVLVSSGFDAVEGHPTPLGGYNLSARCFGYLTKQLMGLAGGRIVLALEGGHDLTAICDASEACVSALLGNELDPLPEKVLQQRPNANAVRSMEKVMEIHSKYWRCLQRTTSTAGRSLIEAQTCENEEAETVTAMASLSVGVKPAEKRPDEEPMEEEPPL

Histone deacetylase 2 = Histone deacetylase 2 (Homo sapiens, UniProt Q92769); assay: Inhibition of HDAC2 (unknown origin)
Chain of Histone deacetylase 2 (Q92769 whole entry): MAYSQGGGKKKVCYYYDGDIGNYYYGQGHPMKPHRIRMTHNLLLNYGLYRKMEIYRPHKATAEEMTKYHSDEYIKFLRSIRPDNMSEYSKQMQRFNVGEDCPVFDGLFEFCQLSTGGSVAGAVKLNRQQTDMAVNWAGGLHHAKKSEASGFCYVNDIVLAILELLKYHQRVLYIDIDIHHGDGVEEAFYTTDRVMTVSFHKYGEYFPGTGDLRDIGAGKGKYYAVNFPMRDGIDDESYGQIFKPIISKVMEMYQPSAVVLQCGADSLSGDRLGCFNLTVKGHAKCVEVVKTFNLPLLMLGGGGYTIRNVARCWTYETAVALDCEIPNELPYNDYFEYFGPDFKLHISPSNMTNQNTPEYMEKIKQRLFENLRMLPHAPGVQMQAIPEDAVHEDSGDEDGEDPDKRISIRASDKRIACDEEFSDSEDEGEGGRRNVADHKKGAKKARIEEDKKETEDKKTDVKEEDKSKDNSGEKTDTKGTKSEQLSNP

Histone deacetylase 7 = target: T2, Histone deacetylase 7 (Homo sapiens, UniProt Q8WUI4); assay: Inhibition of HDAC7 (unknown origin)
T2 sequence (Q8WUI4 whole entry): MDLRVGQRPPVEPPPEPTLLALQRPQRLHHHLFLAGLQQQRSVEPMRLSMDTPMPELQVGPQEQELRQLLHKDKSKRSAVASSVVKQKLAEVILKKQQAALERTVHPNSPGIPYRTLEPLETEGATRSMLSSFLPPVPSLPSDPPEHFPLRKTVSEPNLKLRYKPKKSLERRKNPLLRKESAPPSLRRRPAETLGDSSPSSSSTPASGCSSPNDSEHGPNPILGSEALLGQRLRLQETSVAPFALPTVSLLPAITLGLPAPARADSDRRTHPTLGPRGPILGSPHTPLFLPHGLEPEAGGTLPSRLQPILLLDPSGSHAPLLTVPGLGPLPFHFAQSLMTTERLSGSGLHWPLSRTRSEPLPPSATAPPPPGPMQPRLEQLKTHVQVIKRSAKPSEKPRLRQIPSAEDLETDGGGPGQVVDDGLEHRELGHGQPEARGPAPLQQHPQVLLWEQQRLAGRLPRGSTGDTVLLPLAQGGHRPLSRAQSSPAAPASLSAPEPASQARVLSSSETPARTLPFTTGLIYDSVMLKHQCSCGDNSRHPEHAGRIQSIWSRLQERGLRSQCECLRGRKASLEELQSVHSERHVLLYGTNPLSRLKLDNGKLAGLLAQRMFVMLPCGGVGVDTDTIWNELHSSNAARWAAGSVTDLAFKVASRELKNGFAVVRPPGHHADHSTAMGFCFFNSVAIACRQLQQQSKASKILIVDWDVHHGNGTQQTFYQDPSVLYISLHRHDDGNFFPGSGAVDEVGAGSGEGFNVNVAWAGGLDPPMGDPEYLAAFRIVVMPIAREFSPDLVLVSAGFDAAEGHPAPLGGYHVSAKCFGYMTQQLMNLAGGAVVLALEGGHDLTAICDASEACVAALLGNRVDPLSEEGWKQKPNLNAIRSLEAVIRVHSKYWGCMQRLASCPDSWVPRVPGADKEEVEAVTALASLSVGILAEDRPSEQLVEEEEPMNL

Histone deacetylase 11 = target: T3, Histone deacetylase 11 (Homo sapiens, UniProt Q96DB2); assay: Inhibition of HDAC11 (unknown origin)
T3 sequence (Q96DB2 whole entry): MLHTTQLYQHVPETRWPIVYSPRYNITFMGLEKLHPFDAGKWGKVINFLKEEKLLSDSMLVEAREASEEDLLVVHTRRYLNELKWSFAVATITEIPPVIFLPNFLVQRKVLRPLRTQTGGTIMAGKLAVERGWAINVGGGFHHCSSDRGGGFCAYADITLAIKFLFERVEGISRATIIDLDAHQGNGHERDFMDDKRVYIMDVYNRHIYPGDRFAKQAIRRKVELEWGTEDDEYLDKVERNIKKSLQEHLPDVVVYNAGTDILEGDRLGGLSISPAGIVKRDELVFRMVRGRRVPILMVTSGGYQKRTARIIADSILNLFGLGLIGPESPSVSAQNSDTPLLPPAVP

Histone deacetylase 3 = Histone deacetylase 3 (Homo sapiens, UniProt O15379); assay: Inhibition of HDAC3 (unknown origin)
Chain of Histone deacetylase 3 (O15379 whole entry): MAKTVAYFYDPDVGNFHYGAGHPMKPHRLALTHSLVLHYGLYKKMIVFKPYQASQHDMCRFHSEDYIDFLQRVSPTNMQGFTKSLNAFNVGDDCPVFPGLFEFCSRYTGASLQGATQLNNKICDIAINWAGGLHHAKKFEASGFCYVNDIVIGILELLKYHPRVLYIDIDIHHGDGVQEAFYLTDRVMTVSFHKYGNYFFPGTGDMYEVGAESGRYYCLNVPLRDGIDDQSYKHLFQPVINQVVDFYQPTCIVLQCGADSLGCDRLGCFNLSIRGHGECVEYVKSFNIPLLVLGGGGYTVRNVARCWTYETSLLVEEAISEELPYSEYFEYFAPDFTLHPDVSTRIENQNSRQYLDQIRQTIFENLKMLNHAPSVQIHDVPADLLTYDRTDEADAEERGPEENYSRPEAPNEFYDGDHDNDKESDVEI

Question: `O=C(NO)c1ccc(CN2c3ccccc3[S+]([O-])C[C@H]3CCCC[C@H]32)cc1` (stereo partly drawn) was tested. Which IC50 [1] did it give?
Answer: 14 µM

Question: And the IC50 (Histone deacetylase 5)?
Answer: 12 µM

Question: What about the IC50 (Histone deacetylase 1) of the same compound?
Answer: 4.9 µM

Question: What about the IC50 (Histone deacetylase 4) of the same compound?
Answer: > 30 µM

Question: And the IC50 (Histone deacetylase 2)?
Answer: 26 µM

Question: And the IC50 (Histone deacetylase 7)?
Answer: > 30 µM

Question: And the IC50 (Histone deacetylase 11)?
Answer: 0.54 µM

Question: And the IC50 (Histone deacetylase 3)?
Answer: 26 µM
